Source: US8969360B2, “Compounds useful as inhibitors of ATR kinase” (Vertex Pharmaceuticals Incorporated, priority 2013, dated 2015)
pKi: −log10 of the molar value.

Key:
[1] = molecular target: T1, ATR kinase (Homo sapiens, UniProt Q13535); test: ATR Inhibition Assay (radioactive-phosphate incorporation); assay type: biochemical; details: Ki(app); 5 nM full-length ATR, 10 μM ATP, 800 μM target peptide, 25° C.
T1 construct: Assays were carried out at 25° C. in the presence of 5 nM full-length ATR
Outline: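 Full-length ATR (5 nM) in 50 mM Tris/HCl pH 7.5, 10 mM MgCl2, 1 mM DTT, with 800 μM peptide substrate and 10 μM [γ-33P]ATP at 25 °C. Compounds (from 15 μM final, 3-fold dilutions, 7% DMSO) were preincubated 10 min; the reaction was stopped at 24 h. 33P incorporation was captured on phosphocellulose; Ki(app) was from non-linear regression of initial rates.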

[2] = system: HCT116 colorectal cancer cells; test: Cisplatin Sensitization Assay (96 h cell viability MTS); assay type: cell-based; details: concentration of compound required to reduce the IC50 of Cisplatin alone by at least 3-fold; HCT116, 96 h MTS
Outline: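 HCT116 cells received compound and cisplatin together as a full matrix of 2-fold dilutions, each from a 10 μM top final concentration. After 96 h at 37 °C and 5% CO2, viability was read by MTS (1 h, A490). The value is the compound concentration that lowers the cisplatin IC50 at least 3-fold.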

T1 sequence (Q13535 whole entry): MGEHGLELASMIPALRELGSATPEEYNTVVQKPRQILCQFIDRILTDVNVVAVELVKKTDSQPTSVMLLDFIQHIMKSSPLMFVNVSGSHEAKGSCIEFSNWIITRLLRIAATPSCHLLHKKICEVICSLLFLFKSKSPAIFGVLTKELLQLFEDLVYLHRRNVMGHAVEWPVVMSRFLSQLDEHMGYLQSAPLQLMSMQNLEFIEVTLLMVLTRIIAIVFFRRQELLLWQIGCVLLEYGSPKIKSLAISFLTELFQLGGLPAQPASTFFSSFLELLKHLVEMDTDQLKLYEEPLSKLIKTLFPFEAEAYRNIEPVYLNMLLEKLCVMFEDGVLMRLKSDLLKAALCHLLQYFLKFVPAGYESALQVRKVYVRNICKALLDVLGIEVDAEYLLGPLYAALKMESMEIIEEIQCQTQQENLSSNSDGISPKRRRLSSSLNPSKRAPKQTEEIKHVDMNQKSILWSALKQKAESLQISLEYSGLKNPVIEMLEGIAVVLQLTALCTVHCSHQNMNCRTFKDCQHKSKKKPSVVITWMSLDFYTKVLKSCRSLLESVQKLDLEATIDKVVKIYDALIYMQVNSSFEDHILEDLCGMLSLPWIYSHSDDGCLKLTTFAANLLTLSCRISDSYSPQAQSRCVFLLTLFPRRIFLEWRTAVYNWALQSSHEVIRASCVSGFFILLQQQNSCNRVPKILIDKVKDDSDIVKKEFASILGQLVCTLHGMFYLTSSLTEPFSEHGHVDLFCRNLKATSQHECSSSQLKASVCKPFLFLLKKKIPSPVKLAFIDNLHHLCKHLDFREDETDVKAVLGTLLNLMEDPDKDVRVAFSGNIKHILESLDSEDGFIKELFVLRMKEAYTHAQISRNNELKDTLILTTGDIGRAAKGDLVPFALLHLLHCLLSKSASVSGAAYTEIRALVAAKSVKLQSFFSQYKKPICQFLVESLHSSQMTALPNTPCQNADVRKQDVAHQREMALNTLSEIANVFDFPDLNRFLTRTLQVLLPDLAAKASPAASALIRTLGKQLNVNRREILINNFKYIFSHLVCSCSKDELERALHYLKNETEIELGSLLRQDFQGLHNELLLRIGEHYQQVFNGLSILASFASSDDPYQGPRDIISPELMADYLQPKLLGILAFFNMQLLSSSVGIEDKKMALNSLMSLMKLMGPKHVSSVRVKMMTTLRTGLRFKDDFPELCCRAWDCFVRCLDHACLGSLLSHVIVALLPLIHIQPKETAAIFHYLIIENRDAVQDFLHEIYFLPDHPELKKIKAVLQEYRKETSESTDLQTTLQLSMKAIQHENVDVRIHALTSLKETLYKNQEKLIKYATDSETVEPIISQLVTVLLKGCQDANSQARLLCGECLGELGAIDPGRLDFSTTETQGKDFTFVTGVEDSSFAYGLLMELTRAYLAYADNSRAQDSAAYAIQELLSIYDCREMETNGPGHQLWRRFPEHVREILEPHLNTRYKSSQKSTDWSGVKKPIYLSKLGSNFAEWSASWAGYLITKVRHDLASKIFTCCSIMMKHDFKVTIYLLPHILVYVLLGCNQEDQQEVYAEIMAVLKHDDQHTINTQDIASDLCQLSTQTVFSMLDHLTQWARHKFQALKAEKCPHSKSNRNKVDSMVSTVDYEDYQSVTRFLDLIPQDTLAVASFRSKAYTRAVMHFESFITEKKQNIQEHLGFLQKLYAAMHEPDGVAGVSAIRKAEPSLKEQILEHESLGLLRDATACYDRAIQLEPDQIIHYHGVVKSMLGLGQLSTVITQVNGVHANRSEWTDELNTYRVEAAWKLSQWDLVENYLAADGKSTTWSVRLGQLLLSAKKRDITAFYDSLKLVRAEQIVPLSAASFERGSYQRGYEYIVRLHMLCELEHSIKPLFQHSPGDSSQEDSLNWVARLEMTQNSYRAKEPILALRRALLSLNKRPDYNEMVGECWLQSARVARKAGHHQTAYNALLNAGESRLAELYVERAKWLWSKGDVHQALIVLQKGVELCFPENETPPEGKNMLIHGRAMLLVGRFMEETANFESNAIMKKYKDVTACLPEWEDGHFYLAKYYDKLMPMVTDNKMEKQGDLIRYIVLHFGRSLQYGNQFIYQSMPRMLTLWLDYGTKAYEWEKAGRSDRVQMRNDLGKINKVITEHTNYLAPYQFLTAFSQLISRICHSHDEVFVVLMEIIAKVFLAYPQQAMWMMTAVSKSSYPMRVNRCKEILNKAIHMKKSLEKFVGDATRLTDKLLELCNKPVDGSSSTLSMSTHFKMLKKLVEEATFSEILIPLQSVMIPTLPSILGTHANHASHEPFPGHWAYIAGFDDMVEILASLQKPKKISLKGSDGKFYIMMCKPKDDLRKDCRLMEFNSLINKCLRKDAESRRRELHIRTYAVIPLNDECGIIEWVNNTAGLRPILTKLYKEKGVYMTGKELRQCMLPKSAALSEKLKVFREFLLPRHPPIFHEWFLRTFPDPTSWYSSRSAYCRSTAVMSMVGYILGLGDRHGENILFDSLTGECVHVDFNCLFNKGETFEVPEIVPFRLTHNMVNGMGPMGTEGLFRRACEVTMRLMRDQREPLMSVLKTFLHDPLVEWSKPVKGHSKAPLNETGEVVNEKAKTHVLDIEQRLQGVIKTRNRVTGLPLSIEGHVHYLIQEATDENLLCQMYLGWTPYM

Row | Compound | pKi [1] | Synergy with Cisplatin [2]
1 | Nc1nn2ccc(C(F)(F)F)nc2c1C(=O)Nc1cnccc1-c1ccccc1 [I-C-2, 2-amino-N-(4-phenylpyridin-3-yl)-5-(trifluoromethyl)pyrazolo[1,5-a]pyrimidine-3-carboxamide] | 6.00 to 8.00 | + (Compounds with a Cisplatin sensitization value >0.2 μM but <5 μM are marked with “+.”)
2 | COc1c(Cl)cncc1NC(=O)c1c(N)nn2ccc(C(F)(F)F)nc12 [I-O-48, 2-amino-N-(5-chloro-4-methoxypyridin-3-yl)-5-(trifluoromethyl)pyrazolo[1,5-a]pyrimidine-3-carboxamide] | 6.00 to 8.00 | ++ (Compounds with a Cisplatin sensitization value>0.02 μM but <0.2 μM are marked with “++.”)
3 | COc1ccncc1NC(=O)c1c(N)nn2ccc(N3CCNC(C)C3)nc12 (stereo not shown) [I-O-77, 2-amino-N-(4-methoxypyridin-3-yl)-5-(3-methylpiperazin-1-yl)pyrazolo[1,5-a]pyrimidine-3-carboxamide] | 6.00 to 8.00 | ++ (Compounds with a Cisplatin sensitization value>0.02 μM but <0.2 μM are marked with “++.”)
4 | Nc1nn2ccc(C(F)(F)F)nc2c1C(=O)Nc1cnccc1OCCN1CCOCC1 [I-O-20, 2-amino-N-(4-(2-morpholinoethoxy)pyridin-3-yl)-5-(trifluoromethyl)pyrazolo[1,5-a]pyrimidine-3-carboxamide] | 6.00 to 8.00 | ++ (Compounds with a Cisplatin sensitization value>0.02 μM but <0.2 μM are marked with “++.”)
5 | CN1CCN(c2ccncc2NC(=O)c2c(N)nn3ccc(C(F)(F)F)nc23)CC1 [I-N-1, 2-amino-N-(4-(4-methylpiperazin-1-yl)pyridin-3-yl)-5-(trifluoromethyl)pyrazolo[1,5-a]pyrimidine-3-carboxamide] | 6.00 to 8.00 | + (Compounds with a Cisplatin sensitization value >0.2 μM but <5 μM are marked with “+.”)
6 | CN(C)[C@H]1C[C@@H](Oc2ccncc2NC(=O)c2c(N)nn3ccc(C(F)(F)F)nc23)C1 [I-O-34, 2-amino-N-(4-((1s,3s)-3-(dimethylamino)cyclobutoxy)pyridin-3-yl)-5-(trifluoromethyl)pyrazolo[1,5-a]pyrimidine-3-carboxamide] | 6.00 to 8.00 | ++ (Compounds with a Cisplatin sensitization value>0.02 μM but <0.2 μM are marked with “++.”)
7 | COc1ccncc1NC(=O)c1c(N)nn2ccc(OC3CCN(C)C3)nc12 (stereo not shown) [I-O-57, 2-amino-N-(4-methoxypyridin-3-yl)-5-((1-methylpyrrolidin-3-yl)oxy)pyrazolo[1,5-a]pyrimidine-3-carboxamide] | 6.00 to 8.00 | ++ (Compounds with a Cisplatin sensitization value>0.02 μM but <0.2 μM are marked with “++.”)
8 | Nc1nn2ccc(C(F)(F)F)nc2c1C(=O)Nc1cnccc1OC1CCC1 [I-O-5, 2-amino-N-(4-cyclobutoxypyridin-3-yl)-5-(trifluoromethyl)pyrazolo[1,5-a]pyrimidine-3-carboxamide] | 6.00 to 8.00 | +++ (Compounds with a Cisplatin sensitization value of <0.02 μM are marked with “+++.”)
9 | Nc1nn2ccc(C(F)(F)F)nc2c1C(=O)Nc1cnccc1OC1CCOCC1 [I-O-11, 2-amino-N-(4-((tetrahydro-2H-pyran-4-yl)oxy)pyridin-3-yl)-5-(trifluoromethyl)pyrazolo[1,5-a]pyrimidine-3-carboxamide] | 6.00 to 8.00 | +++ (Compounds with a Cisplatin sensitization value of <0.02 μM are marked with “+++.”)
10 | CN(C)C1CCC(Oc2ccncc2NC(=O)c2c(N)nn3ccc(C(F)(F)F)nc23)CC1 (stereo not shown) [I-O-35, 2-amino-N-(4-((4-(dimethylamino)cyclohexyl)oxy)pyridin-3-yl)-5-(trifluoromethyl)pyrazolo[1,5-a]pyrimidine-3-carboxamide] | 6.00 to 8.00 | +++ (Compounds with a Cisplatin sensitization value of <0.02 μM are marked with “+++.”)

Second part, led by results:

Row | pKi [1] | Compound | Synergy with Cisplatin [2]
11 | 6.00 to 8.00 | COc1ccncc1NC(=O)c1c(N)nn2ccc(N3CCC(N(C)C)CC3)nc12 [I-O-80, 2-amino-5-(4-(dimethylamino)piperidin-1-yl)-N-(4-methoxypyridin-3-yl)pyrazolo[1,5-a]pyrimidine-3-carboxamide] | + (Compounds with a Cisplatin sensitization value >0.2 μM but <5 μM are marked with “+.”)
12 | 6.00 to 8.00 | Nc1nn2ccc(C(F)(F)F)nc2c1C(=O)Nc1cnccc1OC1CNC1 [I-O-18, 2-amino-N-(4-(azetidin-3-yloxy)pyridin-3-yl)-5-(trifluoromethyl)pyrazolo[1,5-a]pyrimidine-3-carboxamide] | ++ (Compounds with a Cisplatin sensitization value>0.02 μM but <0.2 μM are marked with “++.”)
13 | 6.00 to 8.00 | Nc1nn2ccc(C(F)(F)F)nc2c1C(=O)Nc1cnccc1OC1CCCOC1 (stereo not shown) [I-O-12, 2-amino-N-(4-((tetrahydro-2H-pyran-3-yl)oxy)pyridin-3-yl)-5-(trifluoromethyl)pyrazolo[1,5-a]pyrimidine-3-carboxamide] | +++ (Compounds with a Cisplatin sensitization value of <0.02 μM are marked with “+++.”)
14 | 6.00 to 8.00 | COc1ccncc1NC(=O)c1c(N)nn2ccc(N3CCN4CCC[C@@H]4C3)nc12 [I-O-75, (R)-2-amino-5-(hexahydropyrrolo[1,2-a]pyrazin-2(1H)-yl)-N-(4-methoxypyridin-3-yl)pyrazolo[1,5-a]pyrimidine-3-carboxamide] | ++ (Compounds with a Cisplatin sensitization value>0.02 μM but <0.2 μM are marked with “++.”)
15 | 6.00 to 8.00 | CN(C)CCOc1cc(Cl)ncc1NC(=O)c1c(N)nn2ccc(C(F)(F)F)nc12 [I-O-50, 2-amino-N-(6-chloro-4-(2-(dimethylamino)ethoxy)pyridin-3-yl)-5-(trifluoromethyl)pyrazolo[1,5-a]pyrimidine-3-carboxamide] | ++ (Compounds with a Cisplatin sensitization value>0.02 μM but <0.2 μM are marked with “++.”)
16 | > 8.00 | COc1ccncc1NC(=O)c1c(N)nn2ccc(N3CCNC(C(F)(F)F)C3)nc12 (stereo not shown) [I-O-74, 2-amino-N-(4-methoxypyridin-3-yl)-5-(3-(trifluoromethyl)piperazin-1-yl)pyrazolo[1,5-a]pyrimidine-3-carboxamide] | +++ (Compounds with a Cisplatin sensitization value of <0.02 μM are marked with “+++.”)
17 | 6.00 to 8.00 | CN(C)CCOc1cc(C(F)(F)F)ncc1NC(=O)c1c(N)nn2ccc(C(F)(F)F)nc12 [I-O-51, 2-amino-N-(4-(2-(dimethylamino)ethoxy)-6-(trifluoromethyl)pyridin-3-yl)-5-(trifluoromethyl)pyrazolo[1,5-a]pyrimidine-3-carboxamide] | + (Compounds with a Cisplatin sensitization value >0.2 μM but <5 μM are marked with “+.”)
18 | 6.00 to 8.00 | CN1CC[C@H](Oc2ccncc2NC(=O)c2c(N)nn3ccc(C(F)(F)F)nc23)C1 [I-O-40, (S)-2-amino-N-(4-((1-methylpyrrolidin-3-yl)oxy)pyridin-3-yl)-5-(trifluoromethyl)pyrazolo[1,5-a]pyrimidine-3-carboxamide] | ++ (Compounds with a Cisplatin sensitization value>0.02 μM but <0.2 μM are marked with “++.”)
19 | 5.30 to 6.00 | CN(C)C1CCC(Oc2ccncc2NC(=O)c2c(N)nn3ccc(C(F)(F)F)nc23)CC1 (stereo not shown) [I-O-44, 2-amino-N-(4-(((1s,4s)-4-(dimethylamino)cyclohexyl)oxy)pyridin-3-yl)-5-(trifluoromethyl)pyrazolo[1,5-a]pyrimidine-3-carboxamide] | + (Compounds with a Cisplatin sensitization value >0.2 μM but <5 μM are marked with “+.”)
20 | 5.30 to 6.00 | CC(C)Oc1ccncc1NC(=O)c1c(N)nn2ccc(OCCN(C)C)nc12 [I-O-64, 2-amino-5-(2-(dimethylamino)ethoxy)-N-(4-isopropoxypyridin-3-yl)pyrazolo[1,5-a]pyrimidine-3-carboxamide] | + (Compounds with a Cisplatin sensitization value >0.2 μM but <5 μM are marked with “+.”)
21 | 6.00 to 8.00 | Nc1nn2ccc(C(F)(F)F)nc2c1C(=O)Nc1cnccc1OCCN1CC2(COC2)C1 [I-O-38, N-(4-(2-(2-oxa-6-azaspiro[3.3]heptan-6-yl)ethoxy)pyridin-3-yl)-2-amino-5-(trifluoromethyl)pyrazolo[1,5-a]pyrimidine-3-carboxamide] | + (Compounds with a Cisplatin sensitization value >0.2 μM but <5 μM are marked with “+.”)
22 | 6.00 to 8.00 | COc1ccncc1NC(=O)c1c(N)nn2ccc(OC3COC3)nc12 [I-O-56, 2-amino-N-(4-methoxypyridin-3-yl)-5-(oxetan-3-yloxy)pyrazolo[1,5-a]pyrimidine-3-carboxamide] | +++ (Compounds with a Cisplatin sensitization value of <0.02 μM are marked with “+++.”)
23 | 6.00 to 8.00 | Cc1ccncc1NC(=O)c1c(N)nn2ccc(C(F)(F)F)nc12 [I-C-1, 2-amino-N-(4-methylpyridin-3-yl)-5-(trifluoromethyl)pyrazolo[1,5-a]pyrimidine-3-carboxamide] | ++ (Compounds with a Cisplatin sensitization value>0.02 μM but <0.2 μM are marked with “++.”)
